Measurements taken from patent US20130197023A1, “NEUROPROTECTION BY PHARMACOLOGICAL CHAPERONING OF NICOTINIC ACETYLCHOLINE RECEPTORS” (priority 2012, published 2013).
Several values for one entry are separate records, joined by “and”; a condition that tells them apart may be missing. Equal values may be shown once. Entries after “also recorded” stand apart in the source; their conditions may differ. Read-outs that look alike come from different tables or passages of the source.

How the values were obtained:
[1] = biological target: T1, α4-GFPβ4-WT nAChRs (Mus musculus, UniProt O70174+Q8R493); assay: Whole-cell patch clamp of ACh currents in cortical neurons transfected with α4-GFPβ4-WT; type: cell-based
T1 construct: expressed in transfected cells; host or cells: mouse cortical neurons (primary culture)
T1 sequence (O70174 31-629): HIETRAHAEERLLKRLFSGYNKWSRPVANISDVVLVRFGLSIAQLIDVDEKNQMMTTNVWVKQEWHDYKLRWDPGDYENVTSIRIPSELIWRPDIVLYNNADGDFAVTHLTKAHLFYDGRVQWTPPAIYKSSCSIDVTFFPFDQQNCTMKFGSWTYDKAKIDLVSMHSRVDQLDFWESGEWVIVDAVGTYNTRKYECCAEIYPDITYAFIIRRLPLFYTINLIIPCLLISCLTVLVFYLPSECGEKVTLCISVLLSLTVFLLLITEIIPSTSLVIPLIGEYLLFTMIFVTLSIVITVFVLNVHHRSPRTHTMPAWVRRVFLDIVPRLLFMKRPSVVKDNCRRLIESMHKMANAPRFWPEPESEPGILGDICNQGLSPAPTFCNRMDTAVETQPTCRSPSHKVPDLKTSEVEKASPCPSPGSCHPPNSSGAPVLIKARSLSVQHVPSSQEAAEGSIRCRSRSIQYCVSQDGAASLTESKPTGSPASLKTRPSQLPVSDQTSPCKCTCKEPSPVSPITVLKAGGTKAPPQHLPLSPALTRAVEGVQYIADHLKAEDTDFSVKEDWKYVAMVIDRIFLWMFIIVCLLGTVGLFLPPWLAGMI
T1 sequence (Q8R493 21-495): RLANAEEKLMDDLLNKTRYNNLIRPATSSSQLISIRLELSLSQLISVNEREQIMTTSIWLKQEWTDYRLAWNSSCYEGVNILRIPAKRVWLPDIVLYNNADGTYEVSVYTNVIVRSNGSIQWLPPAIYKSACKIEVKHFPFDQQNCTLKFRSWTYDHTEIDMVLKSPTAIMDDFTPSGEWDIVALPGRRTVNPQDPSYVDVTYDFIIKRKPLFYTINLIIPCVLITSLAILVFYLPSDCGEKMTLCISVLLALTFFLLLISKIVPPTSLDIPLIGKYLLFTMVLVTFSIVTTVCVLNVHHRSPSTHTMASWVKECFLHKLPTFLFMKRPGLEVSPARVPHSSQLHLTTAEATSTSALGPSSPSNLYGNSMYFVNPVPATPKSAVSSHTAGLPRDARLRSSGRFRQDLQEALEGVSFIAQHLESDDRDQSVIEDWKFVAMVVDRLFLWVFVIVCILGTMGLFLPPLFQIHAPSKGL
Method: (§1) To correlate the fluorescence based insertion measurements with electrophysiological measurements, we performed whole-cell patch clamp recording from neurons in the preparation used for our fluorescence experiments, transfected either with α4-GFPβ4-WT or with α4-GFPβ4-R348C nAChRs. The successfully transfected neurons were identified with green fluorescence (FIG. 6. A, D of Richards et al.). Puffs of 300 μM ACh (0.1 s, 20 psi), typically give maximal currents in previous experiments and therefore provide a measure of nAChR number. ACh evoked inward currents in 100% (8/8) and 92% (11/12) of neurons transfected with α4-GFPβ4-WT and α4-GFPβ4-R348C nAChRs, respectively (FIG. 6B, 6E of Richards et al.). The α4-GFPβ4-R348C nAChR currents (120±33 pA, n=12) were only 40% of α4-GFPβ4-WT nAChR currents (310±72 pA, n=8) (p=0.02) (FIG. 6C of Richards et al.). Because variations among the size of neurons could complicate the data, we calculated current density (dividing ACh currents divided by membrane capacitance). The current density of […] (16.3±2.1 pA/pF, n=8) (p=0.001) (FIG. 6F of Richards et al.). Thus in cortical neurons, the R348C mutation produces a fairly consistent ˜2-fold decrease in α4β4-insertion rate and ˜2.5 fold decrease in ACh-induced currents.

[2] = biological target: T2, α4-GFPβ4-R348C nAChRs (Mus musculus, UniProt O70174+Q8R493, R348C); assay: Whole-cell patch clamp of ACh currents in cortical neurons transfected with α4-GFPβ4-R348C; type: cell-based
T2 construct: expressed in transfected cells; host or cells: mouse cortical neurons (primary culture)
T2 sequence (O70174 31-629, stated change not applied): as the sequence (O70174 31-629) above
T2 sequence (Q8R493 21-495 R348C): as the sequence (Q8R493 21-495) above, with R328C counted along it
Method: as §1

[3] = tested on: ATF6; type: cell-based, mouse
Method: (§2) Mouse Neuro-2a cells were cultured using standard tissue culture techniques and maintained in 45% DMEM, 45% OptiMEM and 10% FBS. Plasmid concentrations used for transfection were as follows: 500 ng of each nAChR subunit, 75 ng of pCS2-mcherry, 250 ng of Sec24D constructs, 100 ng of pDsRed2-ER, 250 ng of GaIT-eCFP and 500 ng of ATF6-eGFP. 90,000 cells were plated in poly-D-lysine coated 35 mm MatTek glass bottom imaging dishes. The following day, plasmid DNA was mixed with cationic lipids by adding appropriate DNA concentrations to 4 μl of Expressfect transfection reagent in 200 μl DMEM final volume and incubated for 20 min at room temperature to form cationic lipid-DNA complexes. DMEM+DNA-lipid complexes were added to Neuro-2a cells in 1 ml of DMEM+10% FBS and incubated at 37° C. for 4 h. Dishes were rinsed 2× with DMEM, then filled with 3 ml of DMEM+10% FBS and incubated at 37° C. for 48 h. Nicotine, cytisine or DHβE was added at appropriate concentrations during the change of medium following 4 h incubation with Expressfect-plasmid DNA complexes.

[4] = tested on: ER exit sites (ERES); type: cell-based, mouse
Method: as §2
Neuro-2a cells were co-transfected with 500 ng each of α4-mcherry and β2-wt nAChR subunits and 250 ng of the ERES marker, Sec24D-eGFP. Each cell was focused to a plane where the maximum ERES were visualized. Sequential images of eGFP and mcherry fluorescence were obtained and linearly unmixed. For quantification, ERES regions of interest (ROIs) were demarcated using intensity-based thresholding and counted for each cell using the particle analysis feature in ImageJ version 1.44 or later. The fluorescence intensity was obtained for each ERES body within the cells and average ERES intensity was plotted. Error bars for ERES measurements are ±standard error of mean (SEM) and p values are based on a 2-tailed t test.

[5] = tested on: Neuro-2a cells; type: cell-based, mouse
Method: (§3) Neuro-2a cells were transfected with α4-eGFP (500 ng)+β2wt (500 ng)+GaIT-mcherry (250 ng) or pDSred2-ER (100 ng) and cells were incubated for 48 h with appropriate concentrations of nicotine, cytisine or DHβE.
In ImageJ, background was subtracted, and DSred2-ER fluorescence was thresholded and demarcated for each cell.

[6] = tested on: Neuro-2a cells; type: cell-based, mouse; remark: listed apart in the source
Method: as §3
Two color fluorescence signals were separated with a dichroic and optical filters aligned in the emission path where green and red emission was separately aligned to the two halves of an EMCCD. Post-acquisition processing of images used Metamorph to demarcate TGN bodies and to extract number, size and intensity statistics.

[7] = biological target: T3, α4-eGFPβ2-wt nAChRs (Mus musculus, UniProt O70174+Q9ERK7); type: cell-based
T3 construct: expressed in transfected cells; host or cells: mouse Neuro-2a cells
T3 sequence (O70174 31-629): as the sequence (O70174 31-629) above
T3 sequence (Q9ERK7 26-501): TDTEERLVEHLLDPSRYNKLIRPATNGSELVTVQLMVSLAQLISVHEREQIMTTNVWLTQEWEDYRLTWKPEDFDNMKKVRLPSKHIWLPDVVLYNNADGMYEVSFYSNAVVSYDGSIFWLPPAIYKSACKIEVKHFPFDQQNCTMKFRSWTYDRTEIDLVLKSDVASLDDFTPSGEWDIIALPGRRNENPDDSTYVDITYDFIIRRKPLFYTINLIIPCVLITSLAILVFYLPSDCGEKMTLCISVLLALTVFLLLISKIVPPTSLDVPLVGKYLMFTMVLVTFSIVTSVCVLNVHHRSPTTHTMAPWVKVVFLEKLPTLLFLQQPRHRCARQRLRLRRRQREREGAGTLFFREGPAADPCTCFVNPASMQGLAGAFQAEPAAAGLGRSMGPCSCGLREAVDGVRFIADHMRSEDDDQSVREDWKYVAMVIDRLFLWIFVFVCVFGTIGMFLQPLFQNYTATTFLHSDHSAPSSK
Method: Neuro-2a cells were plated on 12 mm glass coverslips within 35 mm plastic bottom cell culture dishes. The following day, cells were transfected with 500 ng α4-eGFP and 500 ng β2-wt nAChR subunits. 24 to 48 hr later, glass coverslips were transferred to dishes on the microscope stage. Green fluorescence was visualized with an upright microscope (BX50WI, Olympus) and UV illumination with appropriate excitation filters. Agonist-induced currents were tested at a holding potential of −65 mV using a focal, relatively rapid drug application system designed to minimize desensitization (Xiao et al., 2009). We applied drugs from the lowest to highest concentration at 3 min intervals to minimize desensitization. Whole-cell patch-clamp recordings were with a MultiClamp 700B amplifier, a 1322 analog-to-digital converter, and pCLAMP 9.2 software (all from Axon Instruments, Molecular Devices). Data were sampled at 10 kHz and filtered at 2 kHz.
The intrapipette solution contained (in mM): 135 potassium gluconate, 5 KCl, 5 EGTA, 0.5 CaCl2, 10 HEPES, 2 Mg-ATP, and 0.1 GTP; the pH was adjusted to 7.2 with Tris base and the osmolarity to 300 mOsm with sucrose. The extracellular solution contained (in mM): 140 NaCl, 5 KCl, 2 CaCl2, 1 MgCl2, 10 HEPES, and 10 glucose; pH was adjusted to 7.3 with Tris base. The Nernst potential for Cl^− in the intrapipette solution is −82.9 mV. The bath was continuously perfused with extracellular solution (ECS) at room temperature (23±1° C.). The patch electrodes had resistances of 5 to 8 MΩ. The junction potential between the patch pipette and the bath solutions was nulled just before forming a gΩ seal. Series resistance was monitored and compensated by 70-80% throughout recordings. The data were ignored if the series resistance (15-30 MΩ) changed by >20% during the recording session.

[8] = biological target: T3, α4-eGFPβ2-wt nAChRs; type: cell-based; remark: listed apart in the source
Source text: Details of the quantification method have been previously described (Srinivasan et al., 2011). Briefly, PM fluorescence was extracted as follows: Raw TIRF images were converted to background-subtracted images and the ER fluorescence was thresholded and selected. ER fluorescence was then subtracted from the original image to generate images with PM fluorescence signals. These procedures yielded a dataset of several hundred thousand pixel intensities over the 15-50 cells in each experimental group. Fluorescence intensities are simply the sum of pixel values for either the PM or the ER or the ER+PM (using whole TIRF footprint images). Mean PM fluorescence intensity was derived by dividing the total fluorescence intensity for each experimental group by the number of imaged cells and normalized to intensity of untreated cells. Ratios of fluorescence intensities for the whole TIRF footprint (ER+PM) to ER were used to determine the post-Golgi fraction of receptors. For PM integrated density measurements, rather than plotting SEMs (which would be indistinguishably small on the plots), we have used “error bars” to depict 99% confidence intervals based on a two-tailed t-test. Measurements from drug treated cells were normalized to values of untreated cells imaged on the same day. DHβE TIRF experiments were performed on a different day from nicotine and cytisine experiments.

[9] = biological target: α4β2 nAChRs (Mus musculus, UniProt O70174+Q9ERK7)
Sequence of α4β2 nAChRs (O70174 31-629): as the sequence (O70174 31-629) above
Sequence of α4β2 nAChRs (Q9ERK7 26-501): as the sequence (Q9ERK7 26-501) above
Source text: For NFRET experiments, Neuro-2a cells were transfected with GaIT-eCFP+α4-mcherry+β2-eGFP subunits. GaIT-eCFP was used to label the TG, TGN (Schaub et al., 2006). Cells transfected with α4-mcherryβ2wt or α4wtβ2-eGFP nAChRs were included in every imaging session to control for pixel saturation and spectral bleedthrough. Live cells were imaged using an Eclipse C1si laser scanning confocal microscope. During image acquisition, cells were focused to a plane where the GaIT-eCFP fluorescence was best visualized. Images with emission spectra for eCFP, eGFP and mcherry were acquired in 5-nm bins between 470 and 620 nm. 439, 488 and 561 nm laser lines were used to excite eCFP, eGFP and mcherry respectively. Images were linearly unmixed using reference spectra for eCFP, eGFP and mcherry with emission maxima at 477, 508 and 608 nm. Reference spectra were acquired from Neuro-2a cells transfected with either GaIT-eCFP or α4-mcherryβ2wt or α4wtβ2-eGFP during the same imaging session. Linear unmixing was used to separate all three emission spectra from each image. Linearly unmixed images were compiled into donor spectral bleed-through stacks, acceptor spectral bleed-through stacks, and sample image stacks.
The PixFRET ImageJ plugin was used to determine the eGFP and mcherry spectral bleedthrough (BT) values and to calculate the net FRET (nF) (equation 1) and normalized FRET (NFRET) at each pixel. With the background and bleed-through corrections set, the nF for each pixel as described by equation 1 was calculated and the data were presented as 32-bit images. nF was divided by the square root of eGFP and mcherry intensities (equation 2) to obtain the normalized FRET (NFRET) value at each pixel. FRET normalization was used to control for large differences in fluorophore expression within subcellular regions and between different cells in a dish.
where, nF=net FRET, IFRET=mcherry sensitized emission with 488 nm excitation, IeGFP=eGFP emission with 488 nm excitation, BTeGFP=spectral bleedthrough of eGFP emission into mcherry emission spectra at 488 nm excitation, Imcherry=mcherry emission with 561 nm excitation and BTmcherry=spectral bleedthrough of mcherry emission into eGFP emission spectra at 561 nm excitation. IFRET, IeGFP and Imcherry were obtained from Neuro-2a cells transfected with GaIT-eCFP+α4-mcherry+β2-eGFP. BTeGFP and BTmcherry values were obtained from Neuro-2a cells transfected with α4-mcherry+β2wt and α4wt+β2-eGFP respectively.
Histograms of NFRET (x-axis) versus number of pixels (y-axis) of each imaged cell were compiled for either the whole cell sections or the TG, TGN ROIs, demarcated by intensity-based thresholding of GaIT-eCFP fluorescence. Frequency histograms obtained in this way (omitting values of zero) were merged for all cells in each experimental group and fitted to two Gaussian components such that a minimum goodness of fit (R^2) value of 0.995 was achieved. Ratios of area under the curve for the two Gaussian components with high and low mean NFRET values were used to determine changes in receptor stoichiometry between experimental groups: NFRET histograms were fitted to Gaussian components, yielding the total pixel area under either the A1 (low mean NFRET fit) or A2 (high mean NFRET fit) components. For quantitative measurements of stoichiometry, we compared the fractional area (FA) for the low NFRET component in each case as given by the following equation:
where, FA=fractional area, A1=area under the curve for low mean NFRET Gaussian component and A2=area under the curve for high mean NFRET Gaussian component.
Due to variability resulting from cell passage number, we imaged untreated control cells on the same day to compare and evaluate the effects of drug exposure on stoichiometry.

[10] = tested on: NMDA receptor; details: in vivo; cited from earlier work
[11] = compared with untreated cells, 48 h
[12] = compared to untreated cells, 48 h exposure

Q: For `CC(=O)OCC[N+](C)(C)C` [ACh], which “ACh evoked inward currents” value ([1]; 300 μM ACh puffs (0.1 s, 20 psi), α4-GFPβ4-WT) is on record?
A: 310±72 pA

Q: And the “neurons in which ACh evoked inward currents” value ([1]; 300 μM ACh, α4-GFPβ4-WT (8/8))?
A: 100%

Q: And the “current density (ACh currents divided by membrane capacitance)” value ([1]; 300 μM ACh, α4-GFPβ4-WT as printed)?
A: 6.3±1.4 pA/pF

Q: What about the “ACh evoked inward currents” value ([2]; 300 μM ACh puffs (0.1 s, 20 psi), α4-GFPβ4-R348C) of the same molecule?
A: 120±33 pA

Q: And the “neurons in which ACh evoked inward currents” value ([2]; 300 μM ACh, α4-GFPβ4-R348C (11/12))?
A: 92%

Q: And the “current density (ACh currents divided by membrane capacitance)” value ([2]; 300 μM ACh, α4-GFPβ4-R348C as printed)?
A: 16.3±2.1 pA/pF

Q: For `O=c1cccc2n1C[C@@H]1CNC[C@H]2C1` [Cytisine, cytisine], which “reduction in the ratio of nuclear to whole cell ATF6-eGFP fluorescence” value [3] is on record?
A: ~25%

Q: And the “increase in ERES fluorescence / formation of ERES” value [4]?
A: ~2 fold

Q: What about the “effect on peripheral ER area (in words)” value [5] of the same molecule?
A: reduced

Q: And the “reduction in the average ER area” value [5]?
A: ~1.4 fold

Q: What about the “Number of TGN bodies” value [6] of the same molecule?
A: no effect

Q: And the “effect on the average intensity of TGN bodies (in words)” value [6]?
A: significantly reduced

Q: And the “effect on the number of TGN bodies (in words)” value [6]?
A: failed to significantly affect

Q: What about the “evoked currents as % of maximum currents induced by 500 μM nicotine” value [7] of the same molecule?
A: < 0.1%

Q: And the “fraction of the total receptor population activated” value [7]?
A: < 0.1%

Q: What about the “increase in PM-localized nAChRs” value [8] of the same molecule?
A: 3 fold and ~3.5 fold

Q: And the “increase in the footprint/ER ratio” value [8]?
A: ~1.5 fold and ~2 fold

Q: What about the “TG+TGN FA (fractional area of low NFRET component)” value [9] of the same molecule?
A: 0.42

Q: What about the “whole cell FA (fractional area of low NFRET component)” value [9] of the same molecule?
A: 0.30

Q: Which “time within which antidepressant effects become established” value [10] does the source give for `CNC1(c2ccccc2Cl)CCCCC1=O` (centres unmarked) [ketamine] here?
A: 1 to 2 h

Q: For `CO[C@H]1CC=C2CCN3CCC4=C(CC(=O)OC4)[C@]23C1` [DHβE, dihydro-β-erythroidine], which “reduction in the ratio of nuclear to whole cell ATF6-eGFP fluorescence” value ([3]; 10 or 100 μM, 48 h (both concentrations)) is on record?
A: ~23%

Q: What about the “increase in ERES fluorescence / formation of ERES” value ([4]; compared to untreated control cells, co-expressed nAChRs) of the same molecule?
A: ~2 fold

Q: And the “effect on peripheral ER area (in words)” value ([5]; compared to untreated controls, 48 h)?
A: did not significantly affect

Q: What about the “effect on the average intensity of TGN bodies (in words)” value [6, 11] of the same molecule?
A: significantly reduced

Q: What about the “effect on the number of TGN bodies (in words)” value [6, 11] of the same molecule?
A: failed to significantly affect

Q: And the “nAChR activation (in words)” value [7]?
A: activates no receptors

Q: What about the “effect on the footprint/ER ratio (in words)” value [8, 12] of the same molecule?
A: no marked effects

Q: And the “increase in the footprint/ER ratio” value [8, 12]?
A: ~1.5 fold

Q: What about the “effect on PM-localized nAChRs (in words)” value ([8]; compared to untreated controls, 48 h exposure) of the same molecule?
A: small, but significant increase; also recorded: no marked effects

Q: What about the “TG+TGN FA (fractional area of low NFRET component)” value ([9]; 10 μM DHβE, untreated cells 0.53) of the same molecule?
A: 0.37

Q: What about the “whole cell FA (fractional area of low NFRET component)” value ([9]; 10 μM DHβE, untreated cells 0.54) of the same molecule?
A: 0.45

Q: And the “effect on nAChR stoichiometry” value ([9]; concentrations ranging from 0.1 to 1 μM)?
A: did not affect
